The values that follow come from patent US11638763B2, “Nanoallergens and uses thereof” (University of Notre Dame du Lac, priority 2015, dated 2023).

One assay relates to RBL-SX38 cells. The assay can be described thus: Degranulation assay, RBL-SX38 cells primed with peanut allergy patient sera. In kind it is cell-based, rat. The following applies: for degranulation response: 2% epitope-lipid nanoallergens, single patient serum (FIG. 4); for Immuno-reactivity: epitope-lipid loaded in nanoallergens, patient sera; for effect on Ara h 2 triggered degranulation: 100 μM free epitope 2, FIG. 13. How it is done:
Cell Culture. RBL-SX38 cells were a generous gift from Dr. Jean-Pierre Kinet from Harvard University. RBL-SX38 cells were cultured in Minimum Essential Media (Gibco) with 10% fetal bovine serum (Gemini BioProducts, Sacramento Calif.) and 1.2 mg/mL of G418 salt (Sigma) as previously described.
Degranulation Assays. Degranulation assays were performed as previously described using nanoallergens as the allergen. RBL cells were plated into 96-well dishes for 24 hrs and then incubated with 10% of human sera in cell culture media for an additional 24 hrs prior to the degranulation assay.
Using the mast-like rat basophil leukemia SX38 (RBL) cell line that has been transfected to express the human FcεRI on their surface, applicants can use peanut reactive patient sera in applicants' cellular degranulation assays (FIG. 8). The RBL cells become sensitized when IgEs from the patient sera (including those reactive to peanuts) tightly bind to the high affinity FcεRI. After sensitization, applicants added varying concentrations of either Ara h 2 or nanoallergens with 2% of epitope 2 lipid loaded into the liposome.

The target of another assay is patient IgEs. In words: ELISA binding assay with patient sera. The conditions noted are these: for EC50: patient serum 0, plate coated with anti-IgE IgG. Also noted: species or system human. How it is done: ELISA Assay. A high binding 96-well plate was incubated with anti-Human IgE in Carbonate-Bicarbonate buffer (Sigma) at a concentration of 3 nM for 16 hours at 4° C. Plate was washed with washing buffer (PBS with 0.5% tween 20) and then blocked with blocking buffer (5% BSA in PBS with 0.1% tween 20) for 1 hr at room temperature. Plate was washed with automatic plate washer (AquaMax 2000), then varying concentrations of either Ara h 2-Biotin (Indoors Biotechnologies) or FITC-peptide 2 conjugate in blocking buffer for 1 hour. Plate was washed again and then either streptavidin-HRP (1:5000 dilution) or anti-FITC HRP IgG (1:5000 dilution) was added in blocking buffer. After washing, Amplex Red substrate was added (Invitrogen) and plate fluorescence read at 5 minute intervals according to manufacturers instructions.
In general terms: An ELISA detects its analyte on a solid surface through an enzyme-linked reagent.

Assay [1] deals with Bruton's tyrosine kinase (BTK). In words: Western blot of BTK phosphorylation in stimulated RBL-SX38 cells. Format: cell-based, rat. The conditions noted are these: FIG. 3. As to the method: Western Blot. Stimulated RBL cells were analyzed for intracellular activity with a Western blotting technique previously described. RBL-SX38 cells were plated at approximately 0.5×10^6 cells per mL into a 3 mL dish for 24 hours. Cells were then incubated in 10% patient serum in cell culture media for 24 hours. Cells were then washed with Tyrodes buffer and incubated with Tyrodes from 30 minutes at 37° C. Ara h 2 or nanoallergens were then added at varying concentrations and incubated at 37° C. for 3 minutes. Cells were washed with ice cold PBS, then incubated in RIPA with phosphatase inhibitor lysis buffer, scrapped and sonicated for a minute intervals over the course of 30 minutes on ice. Lysates were then spun down at 15000 RPM for 10 minutes and their protein concentration determined by Bradford Assay. Laemmli buffer and PBS were added to all lysates so that their protein concentration was 0.5 mg/mL or would be 0.5 mg/mL prior to immunoprecipitation. Samples were boiled for 5 minutes; centrifuged and 20 uL of each was added to a 10% SDS-PAGE gel. Samples ran on the gel for 1 hr, were transferred to nitrocellulose paper for 1.5 hrs, and blocked with 5% BSA in TBS-T for 1 hr. […] The membranes were washed, and incubated in with Clarity™ Western ECL Blotting Substrate (Bio-Rad) for 5 minutes. Bands were exposed onto Kodak Chemiluminescence Film for times ranging from 1-30 minutes.

The target in assay [2] is IgE^dansyl. The assay can be described thus: Fluorescence quenching titration of dansyl conjugates. Format: binding. The following applies: monovalent affinity of hapten-amino acid conjugate. How it is done: Fluorescence Quenching Assay. The binding constants for dansyl conjugates were determined as previously described.^27 Briefly, Dansyl conjugates were titrated into wells containing 15 nM IgE^dansyl and then the flourscence read at various concentration points (Ex=280 nm, Em=335).

For assay [3], the target named is IgE^dansyl. The assay can be described thus: Fluorescence quenching binding of HBI molecules to IgE^dansyl. As to the method: Fluorescence Quenching. In order to determine binding of HBI molecules to respective antibodies, we observed the quenching of tryptophan resides using a method previously described. Briefly, either IgE^dansyl or IgG^Penicillin was diluted into a non-binding 96-well dish at 40 nM in PBS. Then, HBI molecules which contained either a dansyl or DNP group were titrated into well and fluorescence (Ex. 280 nm, Em. 335) was observed using a SpectraMax M2 spectrophotometer. PBS and free tryptamine diluted to similar initial fluorescence values were used as controls to account for HBI fluorescence and non-specific quenching respectively.

The next assay concerns RBL-2H3 cells. The assay can be described thus: Degranulation assay, RBL-2H3 cells primed with monoclonal IgE. Format: cell-based, rat. The following applies: valency of 18, FIG. 19. As to the method: Cell Culture. RBL-2H3 cells were cultured in Minimum Essential Media (Gibco) with 10% fetal bovine serum (Gemini BioProducts) as previously described.^25
Degranulation Assays. RBL degranulation assays were performed as previously described, expect using nanoallergens as the allergen.^23 Additionally, RBL cells were incubated with 1 μg/mL of total IgE overnight prior to nanoallergen incubation using 75% IgE^cyclinA as an orthogonal IgE (i.e. an IgE specific to a molecule, cyclinA, which is not used in this study) to simulate physiological conditions for all degranulation assays.^21

The conditions of assay [4]: various sera from highly allergic individuals; cited from earlier work.
Setting [5] is: all four patient sera, 2% loaded, FIG. 6.

“Also recorded” adds a separate entry of the source. Square brackets hold non-standard residues; d marks the D form. Ends that are not written are not given here. Hyp = O=C(O)[C@@H]1C[C@@H](O)CN1

Consider “Epitope-Lipid 8: Ara h 2 epitope CDLEVESGGRDRY (145-157) lipid conjugate, tested loaded at 2% in nanoallergens (also: lipid conjugate, site not given here)”, for which, in the assay with RBL-SX38 cells, the degranulation response result was “little or no degranulation response” and the Immuno-reactivity result is on record as “None”. Further, the “degranulation response in patient sera” value in the assay on RBL-SX38 cells (all four patient sera, 2% loaded, FIG. 6, listed as epitope 8) is given as “no response; also recorded: did not demonstrate any degranulation”.
Consider “Epitope-Lipid 6: Ara h 2 epitope RQQEQQFKRELRNLPQQ (120-136) lipid conjugate, tested loaded at 2% in nanoallergens (also: lipid conjugate, site not given here)”, for which, in the assay on RBL-SX38 cells, the degranulation response result is “simulate degranulation” and the Immuno-reactivity result is recorded as “Mild”. In addition, in the assay with RBL-SX38 cells (setting [5]), the “degranulation response in patient sera” value is reported as “moderate responses”.
Take “Pep2: FITC-tagged epitope 2 peptide used in ELISA (ERDPYS[Hyp]SQDPYS[Hyp]S; also: FITC-tagged, site not given here)”: at patient IgEs, the 50% effective concentration (EC50) (as a rule, the concentration that produces a half-maximal response) came to 465 ± 200 nM.
“Epitope-Lipid 2: Ara h 2 epitope ERDPYSP^OHSQDPYSP^OHS (79-91) lipid conjugate, tested loaded at 2% in nanoallergens (ERDPYS[Hyp]SQDPYS[Hyp]S; also: lipid conjugate, site not given here)”: in assay [1], the BTK phosphorylation result is reported as “increase in phosphorylation BTK”. The “fold lower concentration than Ara h 2 to stimulate degranulation” value in the assay on RBL-SX38 cells (2% epitope 2 lipid, FIG. 2C) is reported as “approximately 10 fold”. In addition, in the assay with RBL-SX38 cells, the degranulation response entry is “simulate degranulation” and the Immuno-reactivity result is “High”. The “effect of proline hydroxylations on degranulation response” value in the assay with RBL-SX38 cells (2% loaded nanoallergens, with and without hydroxylations, FIG. 10) is reported as “increase in response when proline hydroxylations are present”. Moreover, the “fold lower concentration than the other immune-reactive epitope nanoallergens to stimulate degranulation” value with RBL-SX38 cells (single patient serum, FIG. 4) is listed as “approximately 100 fold”.
On to “free epitope 2 peptide: free Ara h 2 epitope 2 peptide, used at 100 μM (ERDPYS[Hyp]SQDPYS[Hyp]S)”, for which the “effect on Ara h 2 triggered degranulation” value is listed as “only a very small decrease in degranulation response” in the assay with RBL-SX38 cells and “did not prevent Ara h 2 protein from triggering degranulation” in the assay on RBL-SX38 cells (listed as free epitope peptide 2). For the same molecule, the “effect on nanoallergen degranulation response” value in the assay with RBL-SX38 cells (100 μM free peptide 2, FIG. 9) is “can be prevented”.
Dansyl: the Kd (usually the free concentration of one partner at which half of the binding sites on the other are occupied at equilibrium, for simple one-to-one binding) at IgE^dansyl [2] is 147 nM; on IgE^dansyl [3] it was 29.9 ± 10 nM.
For the molecule “Epitope-Lipid 4: Ara h 2 epitope RRCQSQLER (28-35) lipid conjugate, tested loaded at 2% in nanoallergens (also: lipid conjugate, site not given here)”, the degranulation response result with RBL-SX38 cells (listed as epitope 4) is recorded as “simulate degranulation; also recorded: little or no degranulation response”. The “degranulation response in patient sera” value in the assay with RBL-SX38 cells (setting [5]) was “no response”. Besides, the Immuno-reactivity result in the assay on RBL-SX38 cells is “None”.
Molecule “DNP-BSA: DNP groups covalently bonded to bovine serum albumin, valency of 18, used as a control” yielded an EC50 in the assay with RBL-2H3 cells of 26 ± 9 nM.
For the molecule “Epitope-Lipid 5: Ara h 2 epitope HASARQQWEL (15-24) lipid conjugate, tested loaded at 2% in nanoallergens (also: lipid conjugate, site not given here)”, the “binding through ELISA” value in the assay on patient IgEs is listed as “did not demonstrate any binding”. Also, the degranulation response result with RBL-SX38 cells (listed as epitope 5) was “simulate degranulation; also recorded: could trigger degranulation”. Besides, the “degranulation response in patient sera” value in the assay with RBL-SX38 cells (setting [5]) is listed as “moderate responses”. The Immuno-reactivity result in the assay on RBL-SX38 cells is recorded as “Mild”.
For the molecule “Epitope-Lipid 1: Ara h 2 epitope NLRPCEQHLMQKIQRD (38-53) lipid conjugate, tested loaded at 2% in nanoallergens (also: lipid conjugate, site not given here)”, in the assay with RBL-SX38 cells, the degranulation response result is “little or no degranulation response” and the Immuno-reactivity entry was “None”. For the same molecule, the “degranulation response in patient sera” value in the assay on RBL-SX38 cells (Serum 1, 2 and 3, in contrast to Serum 0) is given as “moderate responses”.
With “Epitope-Lipid 7: Ara h 2 epitope PQRCDLE (142-148) lipid conjugate, tested loaded at 2% in nanoallergens (also: lipid conjugate, site not given here)”, in the assay on RBL-SX38 cells, the degranulation response result was “simulate degranulation” and the Immuno-reactivity entry is on record as “Low”. Further, the “degranulation response in patient sera” value with RBL-SX38 cells (setting [5]) is recorded as “low responses”.
“Epitope-Lipid 3: Ara h 2 epitope SDRLQGRQQ (114-123) lipid conjugate, tested loaded at 2% in nanoallergens (also: lipid conjugate, site not given here)”: the “binding through ELISA” value in the assay with patient IgEs is on record as “did not demonstrate any binding”. For the same molecule, in the assay with RBL-SX38 cells (listed as epitope 3), the degranulation response entry was “simulate degranulation; also recorded: could trigger degranulation”. Besides, the Immuno-reactivity result in the assay with RBL-SX38 cells is “Mild”.

B1: Ara h2: major peanut allergen, 17.5 kDa 2 S albumin seed storage protein (protein)
chain: RQQWELQGDRRCQSQLERANLRPCEQHLMQKIQRDEDSYGRDPYSPSQDPYSPSQDPDRRDPYSPSPYDRRGAGSSQHQERCCNELNEFENNQRCMCEALQQIMENQSDRLQGRQQEQQFKRELRNLPQQCGLRAPQRCDLEVESGGRDRY
Regarding B1, in assay [4], the “EC50 values in cellular studies” value was “low picomolar range”. Further, a half-maximal response at patient IgEs (EC50) required 40 ± 27 nM.
